The values below are quoted from earlier work in patent US10114931B2, “Pharmaceutical platform technology for the development of natural products” (Sinoveda Canada Inc., priority 2007, dated 2018).

Data set [1] has as its system bone loss in early postmenopausal women. The settings on record: 54 mg/day, given orally for a year.
For data set [2] the following is noted: in vivo.
For data set [3] the following is noted: Yan et al., 2008.
Data set [4] concerns osteoblast formation. The note with it: compared with genistein.
For data set [5] the following is noted: in vivo. This is another data set of the same source.

Where two headings read alike, the source gives them in different places.

As to `O=c1c(-c2ccc(O)cc2)coc2cc(O)cc(O)c12` [genistein], the “Efficacy compared with hormone replacement therapy” value in data set [1] is reported as “as effective as hormone replacement therapy”.

Consider `C[C@@H]1O[C@@H](OC[C@H]2O[C@@H](Oc3c(-c4ccc(O)c(O)c4)oc4cc(O)cc(O)c4c3=O)[C@H](O)[C@@H](O)[C@@H]2O)[C@H](O)[C@H](O)[C@H]1O` [Rutin], for which the “Detection in the blood stream” value in data set [2] is on record as “not detected”.

For `CCC/C=C1\OC(=O)C2=C1CCC=C2` [z-ligustilide], in data set [3], the Bioavailability entry was “less than 3%”.

Regarding `O=c1c(-c2ccc(O)cc2)coc2cc(O)ccc12` [daidzein], the “Potency in osteoblast formation in vitro” value in data set [4] is recorded as “more potent”. Besides, the Bioavailability result in data set [5] is recorded as “less than 5%”.
